Assay results taken from patent US20250223284A1, “REVERSIBLE DPP1 INHIBITORS AND USES THEREOF” (Insmed Incorporated, priority 2023, published 2025).

These molecules were tested against human DPP1 enzyme (Homo sapiens (Human), UniProt P53634) (assay: Human DPP1 Enzyme IC50 Assay). Settings: recombinant human DPP1 activated with cathepsin L, H-Gly-Arg-AMC substrate, 10 min pre-incubation at 37° C., MES pH 6.0.
Type: biochemical
Protocol: Recombinant human DPP1 enzyme (R&D Systems; Minneapolis, MN) was first proteolytically processed into its mature form using recombinant human cathepsin L (R&D Systems) in a buffer consisting of 20 mM citric acid pH 4.5, 150 mM NaCl, 1 mM EDTA and 10 mM DTT. Test articles were applied to activated human DPP1 enzyme in Assay Buffer (25 mM MES pH 6.0, 50 mM NaCl, 5 mM DTT) in a total reaction volume of 125 μL. 25 μL of compound in Assay Buffer plus 5% DMSO was first added to 50 μL of activated human DPP1 enzyme at a concentration of 1 ng/μL and allowed to pre-incubate for 10 minutes at 37° C. after which 50 μL of 1000 μM H-Gly-Arg-AMC substrate (Bachem; St. Torrance, CA) was added, giving final substrate concentration of 400 µM and a final DMSO concentration of 1%. Substrate cleavage was measured for 90 minutes at 37° C., with fluorescence at Excitation/Emission 350/450 nm measured every 5 minutes. DPP1 concentration was interpolated based on its activity relative to a standard curve of activated human recombinant DPP1 enzyme. IC50 values for each compound were calculated via the XLFit (IDBS Version 5.3.1.3) Add-On to Microsoft Excel using the four parameter fit equation y={A+[(B−A)]/[1+((C/x)^D)]}, which appears as equation number 205 (4 Parameter Logistic Model or Sigmoidal Dose-Response Model) in XLFit. Default constraints were used for each Parameter. IC50 was defined as the compound concentration at which 50% of enzyme activity was inhibited when compared to the no-compound control.

Sequence of human DPP1 enzyme (P53634 25-134): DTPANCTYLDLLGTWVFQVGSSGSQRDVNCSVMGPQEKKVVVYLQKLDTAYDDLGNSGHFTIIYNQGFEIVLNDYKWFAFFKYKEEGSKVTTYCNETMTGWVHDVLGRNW
Sequence of human DPP1 enzyme (P53634 231-394): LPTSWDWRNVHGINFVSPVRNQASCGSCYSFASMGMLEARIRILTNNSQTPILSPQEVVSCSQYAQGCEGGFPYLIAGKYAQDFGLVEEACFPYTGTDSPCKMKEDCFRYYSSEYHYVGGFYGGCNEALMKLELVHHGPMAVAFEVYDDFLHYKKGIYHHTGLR
Sequence of human DPP1 enzyme (P53634 395-463): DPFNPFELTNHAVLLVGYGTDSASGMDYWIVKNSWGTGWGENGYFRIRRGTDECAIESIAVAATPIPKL

Question: How did the IC50 turn out when `Cn1c(=O)oc2ccc(-c3ccc(C[C@@H](C#N)NC(=O)[C@H]4CCCCCNC4)cc3)cc21` was run?
Answer: 49.8 nM

Question: `Cn1c(=O)oc2ccc(-c3ccc(C[C@@H](C#N)NC(=O)[C@@H]4CNC[C@@](C)(O)CO4)c(F)c3)cc21` (single isomer, unassigned) was tested. Which IC50 did it give?
Answer: 14.1 ± 3 nM

Question: With `Cn1c(=O)oc2ccc(-c3ccc(C[C@@H](C#N)NC(=O)[C@@H]4CNC[C@](C)(O)CO4)c(F)c3)cc21` (single isomer, unassigned) as the molecule, how does the IC50 read?
Answer: 13.6 ± 2.1 nM

Question: Which IC50 does the source give for `Cn1c(=O)oc2ccc(-c3ccc(C[C@@H](C#N)NC(=O)[C@@H]4CNCC(O)(C(F)(F)F)CO4)cc3)cc21` (single isomer, unassigned) here?
Answer: 3750 nM

Question: Which IC50 does the source give for `C=C[C@]1(O)CNC[C@@H](C(=O)N[C@H](C#N)Cc2ccc(-c3ccc4oc(=O)n(C)c4c3)cc2)OC1` (single isomer, unassigned) here?
Answer: 1470 nM

Question: `Cn1c(=O)oc2ccc(-c3ccc(C[C@@H](C#N)NC(=O)[C@@H]4CNC[C@](O)(CO)CO4)cc3)cc21` (single isomer, unassigned) was tested. Which IC50 did it give?
Answer: 781 nM

Question: For `C=CCC1(O)CNC[C@@H](C(=O)N[C@H](C#N)Cc2ccc(-c3ccc4oc(=O)n(C)c4c3)cc2)OC1` (single isomer, unassigned), which IC50 is on record?
Answer: 1020 nM

Question: With `CCC[C@]1(O)CNC[C@@H](C(=O)N[C@H](C#N)Cc2ccc(-c3ccc4oc(=O)n(C)c4c3)cc2)OC1` (single isomer, unassigned) as the molecule, how does the IC50 read?
Answer: > 5000 nM

Question: Which IC50 does the source give for `CCC[C@@]1(O)CNC[C@@H](C(=O)N[C@H](C#N)Cc2ccc(-c3ccc4oc(=O)n(C)c4c3)cc2)OC1` (single isomer, unassigned) here?
Answer: 769 nM

Question: `CC(C)CO[C@@]1(C)CNC[C@@H](C(=O)N[C@H](C#N)Cc2ccc(-c3ccc4oc(=O)n(C)c4c3)cc2)OC1` (single isomer, unassigned) was tested. Which IC50 did it give?
Answer: > 5000 nM

Question: `CC(C)CO[C@]1(C)CNC[C@@H](C(=O)N[C@H](C#N)Cc2ccc(-c3ccc4oc(=O)n(C)c4c3)cc2)OC1` (single isomer, unassigned) was tested. Which IC50 did it give?
Answer: > 5000 nM

Question: For `Cn1c(=O)oc2ccc(-c3ccc(C[C@@H](C#N)NC(=O)[C@@H]4CNCC(O)(Cc5ccccn5)CO4)cc3)cc21` (single isomer, unassigned), which IC50 is on record?
Answer: > 5000 nM

Question: How did the IC50 turn out when `Cn1c(=O)oc2ccc(-c3ccc(C[C@@H](C#N)NC(=O)[C@@H]4CNC[C@@](O)(CO)CO4)cc3)cc21` (single isomer, unassigned) was run?
Answer: 234 nM

Question: Which IC50 does the source give for `Cn1c(=O)oc2ccc(-c3ccc(C[C@@H](C#N)NC(=O)[C@@H]4CNC[C@]5(CCO5)CO4)cc3)cc21` (single isomer, unassigned) here?
Answer: 729 nM

Question: `Cn1c(=O)oc2ccc(-c3ccc(C[C@@H](C#N)NC(=O)[C@@H]4CNCC5(CCCO5)CO4)cc3)cc21` (single isomer, unassigned) was tested. Which IC50 did it give?
Answer: 95.9 ± 4.4 nM

Question: With `Cn1c(=O)oc2ccc(-c3ccc(C[C@@H](C#N)NC(=O)C4CCCC(O)CNC4)cc3)cc21` (single isomer, unassigned) as the molecule, how does the IC50 read?
Answer: 230 nM

Question: How did the IC50 turn out when `Cn1c(=O)oc2ccc(-c3ccc(C[C@@H](C#N)NC(=O)[C@@H]4CNC[C@@H](O)CCO4)cc3)cc21` (single isomer, unassigned) was run?
Answer: 198 nM

Question: For `Cn1c(=O)oc2ccc(-c3ccc(C[C@@H](C#N)NC(=O)[C@@H]4CNCC[C@H](O)CO4)cc3)cc21` (single isomer, unassigned), which IC50 is on record?
Answer: 67.4 nM

Question: For `Cn1c(=O)oc2ccc(-c3ccc(C[C@@H](C#N)NC(=O)[C@@H]4CNC[C@@](C)(O)CCO4)cc3)cc21` (single isomer, unassigned), which IC50 is on record?
Answer: 243 nM

Question: For `Cn1c(=O)oc2ccc(-c3ccc(C[C@@H](C#N)NC(=O)[C@@H]4CNC[C@](C)(O)CCO4)cc3)cc21` (single isomer, unassigned), which IC50 is on record?
Answer: 23.2 ± 2 nM

Question: Which IC50 does the source give for `CCO[C@H]1CCO[C@H](C(=O)N[C@H](C#N)Cc2ccc(-c3ccc4oc(=O)n(C)c4c3)cc2)CNC1` (single isomer, unassigned) here?
Answer: > 5000 nM

Question: Which IC50 does the source give for `CCO[C@H]1CCNC[C@@H](C(=O)N[C@H](C#N)Cc2ccc(-c3ccc4oc(=O)n(C)c4c3)cc2)OC1` (single isomer, unassigned) here?
Answer: 457 nM

Question: How did the IC50 turn out when `Cn1c(=O)oc2ccc(-c3ccc(C[C@@H](C#N)NC(=O)[C@@H]4CNCCC(C)(O)CO4)cc3)cc21` (single isomer, unassigned) was run?
Answer: 2240 nM

Question: Which IC50 does the source give for `CCO[C@@H]1CCO[C@H](C(=O)N[C@H](C#N)Cc2ccc(-c3ccc4oc(=O)n(C)c4c3)cc2)CNC1` (single isomer, unassigned) here?
Answer: 27 nM

Question: Which IC50 does the source give for `CO[C@H]1CCO[C@H](C(=O)N[C@H](C#N)Cc2ccc(-c3ccc4oc(=O)n(C)c4c3)cc2)CNC1` (single isomer, unassigned) here?
Answer: 1140 nM

Question: With `Cn1c(=O)oc2ccc(-c3ccc(C[C@@H](C#N)NC(=O)[C@@H]4CNCCCCO4)cc3)cc21` (single isomer, unassigned) [drawing 513] as the molecule, how does the IC50 read?
Answer: 25.1 ± 3.1 nM

Question: With `Cn1c(=O)oc2ccc(-c3ccc(C[C@@H](C#N)NC(=O)[C@@H]4CNC[C@](C)(O)CO4)cc3)cc21` (single isomer, unassigned) [drawing 514] as the molecule, how does the IC50 read?
Answer: 314 ± 201 nM

Question: With `CC[C@@]1(O)CNC[C@@H](C(=O)N[C@H](C#N)Cc2ccc(-c3ccc4oc(=O)n(C)c4c3)cc2)OC1` (single isomer, unassigned) [drawing 518] as the molecule, how does the IC50 read?
Answer: 25.1 nM

Question: How did the IC50 turn out when `CC[C@]1(O)CNC[C@@H](C(=O)N[C@H](C#N)Cc2ccc(-c3ccc4oc(=O)n(C)c4c3)cc2)OC1` (single isomer, unassigned) [drawing 519] was run?
Answer: 2740 nM

Question: With `CC(C)[C@]1(O)CNC[C@@H](C(=O)N[C@H](C#N)Cc2ccc(-c3ccc4oc(=O)n(C)c4c3)cc2)OC1` (single isomer, unassigned) [drawing 520] as the molecule, how does the IC50 read?
Answer: > 5000 nM

Question: With `Cn1c(=O)oc2ccc(-c3ccc(C[C@@H](C#N)NC(=O)[C@@H]4CNCC5(CCO5)CO4)cc3)cc21` (single isomer, unassigned) [drawing 530] as the molecule, how does the IC50 read?
Answer: 4.2 ± 0.8 nM

Question: How did the IC50 turn out when `Cn1c(=O)oc2ccc(-c3ccc(C[C@@H](C#N)NC(=O)[C@@H]4CNC[C@@]5(CCO5)CO4)cc3)cc21` (single isomer, unassigned) [drawing 532] was run?
Answer: 3.04 ± 0.8 nM

Question: Which IC50 does the source give for `Cn1c(=O)oc2ccc(-c3ccc(C[C@@H](C#N)NC(=O)[C@@H]4CNCCCCO4)cc3)cc21` (single isomer, unassigned) [drawing 535] here?
Answer: 22.3 ± 2 nM

Question: Which IC50 does the source give for `CN1CC2(C1)OC(=O)c1ccc(-c3ccc(C[C@@H](C#N)NC(=O)[C@@H]4CNCCCCO4)cc3)cc12` (single isomer, unassigned) [drawing 536] here?
Answer: 30.9 ± 2 nM

Question: Which IC50 does the source give for `CCO[C@@H]1CCNC[C@@H](C(=O)N[C@H](C#N)Cc2ccc(-c3ccc4oc(=O)n(C)c4c3)cc2)OC1` (single isomer, unassigned) [drawing 544] here?
Answer: 4.91 ± 0.9 nM

Question: For `CO[C@H]1CCNC[C@@H](C(=O)N[C@H](C#N)Cc2ccc(-c3ccc4oc(=O)n(C)c4c3)cc2)OC1` (single isomer, unassigned) [drawing 547], which IC50 is on record?
Answer: 74.7 nM

Question: With `Cn1c(=O)oc2ccc(-c3ccc(C[C@@H](C#N)NC(=O)C4CCCCCNC4)c(F)c3)cc21` (single isomer, unassigned) [drawing 548] as the molecule, how does the IC50 read?
Answer: 15.8 ± 6.8 nM

Question: `Cn1c(=O)oc2ccc(-c3ccc(C[C@@H](C#N)NC(=O)[C@H]4CCCCCNC4)c(F)c3)cc21` (single isomer, unassigned) [drawing 549] was tested. Which IC50 did it give?
Answer: 140 ± 59.3 nM

Question: Which IC50 does the source give for `CCO[C@@]1(C)CNC[C@@H](C(=O)N[C@H](C#N)Cc2ccc(-c3ccc4oc(=O)n(C)c4c3)cc2)OC1` (single isomer, unassigned) [drawing 551] here?
Answer: > 5000 nM

Question: With `CCO[C@]1(C)CNC[C@@H](C(=O)N[C@H](C#N)Cc2ccc(-c3ccc4oc(=O)n(C)c4c3)cc2)OC1` (single isomer, unassigned) [drawing 552] as the molecule, how does the IC50 read?
Answer: 1680 nM

Question: For `CO[C@@H]1CCO[C@H](C(=O)N[C@H](C#N)Cc2ccc(-c3ccc4oc(=O)n(C)c4c3)cc2)CNC1` (single isomer, unassigned) [drawing 553], which IC50 is on record?
Answer: 6.82 ± 0.5 nM

Question: How did the IC50 turn out when `CO[C@H]1CCNC[C@@H](C(=O)N[C@H](C#N)Cc2ccc(-c3ccc4oc(=O)n(C)c4c3)cc2)OC1` (single isomer, unassigned) [drawing 554] was run?
Answer: 17.4 ± 6 nM

Question: For `Cn1c(=O)oc2ccc(-c3ccc(C[C@@H](C#N)NC(=O)C4CCCCCNC4)cc3)cc21` (stereo partly shown) [I-A], which IC50 is on record?
Answer: 72.6 nM

Question: How did the IC50 turn out when `Cn1c(=O)oc2ccc(-c3ccc(C[C@@H](C#N)NC(=O)C4CCCCCNC4)cc3)cc21` (stereo partly shown) [drawing 511] was run?
Answer: 85.6 ± 19.5 nM

Question: Which IC50 does the source give for `Cn1c(=O)oc2ccc(-c3ccc(C[C@@H](C#N)NC(=O)C4CCCCCNC4)cc3)cc21` (stereo partly shown) [drawing 512] here?
Answer: 61.3 ± 9.9 nM

Question: How did the IC50 turn out when `Cn1c(=O)oc2ccc(-c3ccc(C[C@@H](C#N)NC(=O)[C@@H]4CCCCCNC4)cc3)cc21` [drawing 550] was run?
Answer: 603 nM
